The source of these data is patent US20240294570A1, “ENZYMATICALLY FORMING INTRANUCLEAR PEPTIDE ASSEMBLIES FOR SELECTIVELY KILLING INDUCED PLURIPOTENT STEM CELLS” (BRANDEIS UNIVERSITY, priority 2021, published 2024).

One series concerns ALP. Description: Dephosphorylation rate measurement (LC-MS). On the procedure: The reaction mixtures were analyzed with LC-MS.
Thus, the conversion of the phosphopentapeptides to their corresponding peptides was examined over time.

A short description of series [1]: Degradation in HS-5 cell lysate (LC-MS). The settings on record: 200 μM, 2 h of incubation.
For another series, the system named is HS-5 cells. In words: Cytotoxicity against HS-5 cells (MTT assay). It is filed as cell-based, human. Conditions: 400 μM, 2 h. On the procedure: (§1) Cell Culture: Human induced pluripotent stem cell line A21 was generated from human normal dermal fibroblasts by using the StemRNA™-NM Reprogramming kit (Stemgent, Cat #00-0076). hiPSCs were routinely cultured and passaged on 6-well plates coated with 0.25 μg/cm^2 iMatrix-511 (Recombinant Laminin-511) (ReproCell) with NutriStem XF/FFTM medium (Biological Industries). HS-5 cell line and HEK293 cell line were purchased from American Type Culture Collection (ATCC, USA). HS-5 cells were cultured in Dulbecco's Modified Eagle Medium (DMEM) supplemented with 10% fetal bovine serum (FBS), 100 U/mL penicillin and 100 μg/mL streptomycin. HEK293 cells were cultured in Minimal Essential Medium (MEM) supplemented with 10% fetal bovine serum (FBS), 100 U/mL penicillin and 100 μg/mL streptomycin. All cells were maintained at 37° C. in a humidified atmosphere of 5% CO2.
(§2) Cell Viability of Differentiated Cells: Cytotoxicity against HS-5 cells and HEK293 cells was determined by using MTT assay. […] The absorbance of each well at 595 nm was measured by a DTX880 Multimode Detector. The results were calculated as cell viability percentage relative to untreated cells. […]
On the technique in general: Tetrazolium assays rely on reduction of a dye to a coloured formazan, in cell work by metabolically active cells.

The subject of the next series is iPSCs. In words: Cell viability of iPSCs (trypan blue). It is filed as cell-based, human. The settings on record: 400 μM, 2 h. On the procedure: as §1
(§3) Cell Viability of iPSC's: iPSCs were plated in 6-well plates and incubated for 24 to 48 hours, then media were replaced with fresh one (2 ml) supplemented with PBS (control) 5 (200 μM, 300 μM, and 400 μM), 7 (400 μM) or 9 (400 μM), and incubated for 2 hours. Media were removed and cells were rinsed with PBS once, fresh normal cultural media were added and incubated for 30 min. All cells were collected and stained with trypan blue, live cells were counted using Cellometer Auto 2000 (Nexcelom Bioscience). Data were obtained by from three independent wells (n=3).

The nature of series [2]: Cell viability of iPSCs (trypan blue). It is filed as cell-based, human. The settings on record: human, human induced pluripotent stem cells (iPSC line A21), 2 hours. On the procedure: as §1, §3
A short description of series [3]: Cell viability of iPS-derived HPCs (trypan blue). It is filed as cell-based, human. The settings on record: human, iPS-derived hematopoietic progenitor cells (HPCs), read-out: viability of the HPC cells. On the procedure:
(§4) Differentiation of Human iPSC to iPS-derived Hematopoietic Progenitor Cells (HPC's): iPSCs were differentiated into hematopoietic progenitor cells (HPCs) by using a 3D-bioreactor platform^1. HPCs released from iPSC-spheroids after 9-10 days' differentiation were collected and characterized. Hematopoietic lineage specific marker expression of harvested HPCs were analyzed by flow cytometry. About 97.6% of these HPCs were CD31+CD43+ double positive, but only about 13% are OCT4+, indicative of commitment to hematopoietic lineage. These iPS-derived HPCs were used for 5 (400 μM, 2 hr) cytotoxicity assay.
(§5) Cell Viability of iPS-derived HPC's: iPS-derived HPCs were plated in 12-well plates and incubated overnight, then media were replaced with fresh one (2 ml) supplemented with PBS (control) 5 (400 μM) incubated for 2 hours. All cells were collected and stained with trypan blue, live cells were counted using Cellometer Auto 2000 (Nexcelom Bioscience). Data were obtained by from three independent wells (n=3).

In another series the test system is iPS-derived HPCs. In words: Cell viability of iPS-derived HPCs (trypan blue). Format: cell-based, human. Conditions: 400 μM, 2 h. On the procedure: as §4, §5
The nature of series [4]: Enzymatic self-assembly in vitro, nanostructures by TEM. It is filed as physicochemical. On the procedure: TEM Sample Preparation: After placing 5 μL samples on 400 mesh copper grids coated with continuous thick carbon film (˜35 nm) which is glowed discharged, we washed the grid with ddH2O and UA (uranyl acetate). The sample loaded grid was stained with the UA. The residual UA was removed by filter paper and then dried in air. TEM images were obtained with Morgagni 268 transmission electron microscope.
After obtaining all the precursors, their behaviors for EISA were evaluated in vitro using transmission electron microscopes (TEM) to examine the nanostructures formed before and after the ALP catalyzed dephosphorylation of precursors 5, 7, and 9. […] The critical micelle concentration (CMC) of 5 is 86.1 μM. […] The CMC of 6 is 8.1 μM. Unlike the case of 5, dephosphorylation of 7 or 9 at 400 μM by ALP (0.5 U/mL) produces nanofibers with the diameters of 6±2 nm or 9±2 nm, whose CMC is 87.4 μM or 25.8 μM, respectively.
A key requirement for selectively eliminating iPSCs by EISA is that the L-peptide nanoribbons only form on and in iPSCs, which overexpress ALP, but not on and in the differentiated cells that express normal level of ALP. That is, L-peptide nanoribbons should only rapidly form at high level of ALP, but not at normal level of ALP. […] Thus, after assessing the level of ALP expression in iPSCs, it should be possible to optimizing the initial concentration of a peptide and the time of dephosphorylation, to promote EISA that selectively targets iPSCs.

A short description of series [5]: Critical micelle concentration (CMC) measurement with pyrene probe. Format: physicochemical. On the procedure: Critical Micelle Concentration ((MC) Measurement: The CMCs were determined using pyrene as the fluorescent probe. Different concentrations of compounds were prepared in pyrene-saturate solutions. The fluorescence spectra of pyrene solutions with different concentration compounds were obtained. The intensity ratio of 378 nm/393 nm (I378/I393) was determined by a Synergy H1 hybrid multi-mode microplate reader. Plot I378/I393 against the concentrations of compounds. The concentration at the turning point is the CMC.

The next series deals with HEK293 cells. In words: Cytotoxicity against HEK293 cells (MTT assay). Conditions: 400 μM, 2 h. Format: cell-based. On the procedure:
as §1, §2

The structures appear in SMILES notation. Non-standard residues stand in square brackets, D forms with d. Residues, ends and D or L forms follow the SMILES beside them. *: point of attachment. pY = N[C@@H](Cc1ccc(OP(=O)(O)O)cc1)C(=O)O; NBD = O=[N+]([O-])c1ccc(*)c2nonc12; βAla = NCCC(=O)O

Usually half-life stands for the time in which the quantity being followed falls by half. Lower therefore signals fast loss. What is called viability is a read-out of living cells in per cent, often relative to untreated cells. In the case of `CC(C)C[C@H](NC(=O)CCNc1ccc([N+](=O)[O-])c2nonc12)C(=O)N[C@@H](CC(C)C)C(=O)N[C@@H](CC(C)C)C(=O)N[C@@H](CC(C)C)C(=O)N[C@@H](Cc1ccc(OP(=O)(O)O)cc1)C(=O)O` [compound 5, NBD-βA-LLLLpY] ({NBD-βAla}-LLLL[pY]-OH), in the series with ALP (100 μM, 0.1 U/mL ALP, time point 40 minutes), the “fraction hydrolyzed by ALP” value is reported as “about 24%”. In the series with ALP (400 μM, 0.1 U/mL ALP), the final dephosphorylation ratio turned out to be 69.1%. In the series with ALP (400 μM, 0.5 U/mL ALP, after 5 hours of incubation), the dephosphorylation ratio amounted to 93.8%. Further, the “fraction turned into 6” value was found to be 32.7% in the series on ALP (0.1 U/mL ALP, after 1 hour of incubation) and 49.6% in the series on ALP (0.1 U/mL ALP, after 2 hours of incubation). Further, the half-life at 100 μM in the series on ALP (alkaline phosphatase (ALP) in PBS, half-life of dephosphorylation, 100 μM, 0.5 U/mL ALP) was determined as 27.3 min. In the series on ALP (alkaline phosphatase (ALP) in PBS, half-life of dephosphorylation, 200 μM, 0.5 U/mL ALP), this compound displayed a half-life at 200 μM of 21.6 min. Besides, the half-life at 400 μM is 122 min in the series on ALP (alkaline phosphatase (ALP) in PBS, half-life of dephosphorylation, 400 μM, 0.1 U/mL ALP) and 30.6 min in the series with ALP (alkaline phosphatase (ALP) in PBS, half-life of dephosphorylation, 400 μM, 0.5 U/mL ALP). The “stability of 5 in HS-5 lysate” value in series [1] is given as “All of 5 disappears”. For the same compound, the “cytotoxicity towards HS-5 cells” value in the series with HS-5 cells is given as “slight cytotoxicity”. Besides, the “cell death of iPSCs (FIG. 8A)” value in the series with iPSCs is given as 93%. Also, the viability at 2 h, 200 µM in [2] (200 μM) came out at 31.1 ± 3.2%. This compound also had a viability at 2 h, 300 µM in series [2] (300 μM) of 18.5 ± 1.5%. Also, the viability at 2 h, 400 µM was 6.96 ± 1.71% in [2] (400 μM) and 96.8% in series [3]. In addition, the “cell survival of HPCs (FIG. 8B)” value in the series on iPS-derived HPCs came out at 97%. Further, in [4] (200 μM, one-hour treatment by 0.1 U/mL ALP), the diameters of nanoparticles was determined as 404±50 nm. In series [4] (400 μM, ALP 0.5 U/mL, 37° C., 24 h), this compound yielded a widths of nanoribbons of 74±13 nm. In addition, the “diameter of short nanofibers” value in [4] (400 μM, PBS, before ALP) worked out at 9±2 nm. The “critical micelle concentration (CMC)” value in series [5] turned out to be 86.1 µM. The “cytotoxicity towards HEK293 cells” value with HEK293 cells was “innocuous”.
